# In US20040029843A1, “Rapidly disintegrating formulations for treating or preventing mucositis” (OraPharma, Inc., priority 2002, published 2004):
# Structures can show the parent of a compound that is named as a salt.
# Test system: mucositis induced by acute radiation exposure of the cheek pouch
# Test: Hamster cheek pouch model of radiation-induced oral mucositis, clinical scoring 0-5
# Type: in vivo, Hamsters
# Conditions: 0.1 ml of 0.1 mg/ml aqueous solution topically three times a day for 22 days; for reduction in the number of animal days with scores of 3 or more relative to the control group: 35 Gy on day 0; for mucositis scores versus placebo control group: 35 Gy on day 0, visual score 0-5
# Protocol: Hamsters were randomly assigned to treatment groups with eight (8) animals per group. Each group was treated either with a drug solution or a control, water.
# Animals were dosed three times a day for 22 days. The first dose was applied on day -1. Either a solution of the drug or water alone was applied in a volume of 0.1 ml three times per day.
# Mucositis was induced by acute radiation exposure of the check pouch. A single dose of radiation (35 Gy/dose) was administered to all animals on Day 0. Prior to irradiation, animals were anesthetized with an intraperiotoneal injection of sodium pentobarbital (80 mg/kg) and the left buccal pouch was everted, fixed and isolated using a lead shield.
# Beginning on day 6 and continuing every other day up to day 28, the cheek pouch was photographed. On days that photographs were taken, prior to the first dosing of the day, the animals were anesthetized using an inhalation anesthetic and the left cheek pouch of each animal was rinsed vigorously with sterile water to remove residual food debris or foreign contamination and blotted dry with a gauze sponge. The appearance of the cheek pouch was scored visually by comparison to a validated photographic scale, ranging from 0 for normal to 5 for severe ulceration (clinical scoring). In descriptive terms, this scale is defined as follows: […]
# 0 Pouch completely healthy. No erythema or vasodilatation
# 1 Light to […] erythema and vasodilatation. No erosion of mucosa
# 2 Severe erythema and vasodilatation. Erosion of superficial aspects of mucosa leaving denuded areas. Decreased stippling of mucosa
# 3 Formation of off-white ulcers in one or more places. Ulcers may have a yellow/gray color due to pseudomembrane formation. Cumulative size of ulcers up to ¼ of the pouch surface. Severe erythema and vasodilatation
# 4 Cumulative size of ulcers ¼ to ½ of the pouch surface. Loss of pliability. Severe erythema and vasodilatation
# 5 Virtually all of pouch is ulcerated. Loss of pliability (pouch can only partially be extracted from mouth).
# A score of 1-2 represents mild stage of the disease, whereas a score of 3-5 indicates moderate to severe mucositis.
Compound,reduction in the number of animal days with scores of 3 or more relative to the control group,mucositis scores versus placebo control group
CN(C)[C@@H]1C(O)=C(C(N)=O)C(=O)[C@@]2(O)C(O)=C3C(=O)c4c(O)cccc4[C@@](C)(O)[C@H]3C[C@@H]12 [tetracycline hydrochloride],more than 75%,Significantly lower scores
meclocycline sulfosalicylate,more than 75%,Significantly lower scores
